Measurements as given in paper PMC8396542, “Iterated Virtual Screening-Assisted Antiviral and Enzyme Inhibition Assays Reveal the Discovery of Novel Promising Anti-SARS-CoV-2 with Dual Activity” (International Journal of Molecular Sciences, 2021).

Tests used:
[1] = target: T1, human TMPRSS2 (Homo sapiens, UniProt O15393); assay: fluorogenic protease assay; format: biochemical
T1 construct: enzyme from BPS Bioscience TMPRSS2 fluorogenic assay kit

[2] = target: T2, SARS-CoV-2 M^pro (3CL Protease, 3CL^pro) (Severe acute respiratory syndrome coronavirus 2, UniProt P0DTD1); assay: biochemical
T2 construct: gene rep; untagged enzyme from BPS Bioscience kit; mature main protease nsp5 cut from replicase polyprotein 1ab (pp1a/pp1ab)

[3] = target: T3, human furin (Homo sapiens, UniProt P09958); assay: fluorogenic protease assay; format: biochemical
T3 construct: recombinant furin from BPS Bioscience furin protease assay kit
T3 sequence (P09958 108-715): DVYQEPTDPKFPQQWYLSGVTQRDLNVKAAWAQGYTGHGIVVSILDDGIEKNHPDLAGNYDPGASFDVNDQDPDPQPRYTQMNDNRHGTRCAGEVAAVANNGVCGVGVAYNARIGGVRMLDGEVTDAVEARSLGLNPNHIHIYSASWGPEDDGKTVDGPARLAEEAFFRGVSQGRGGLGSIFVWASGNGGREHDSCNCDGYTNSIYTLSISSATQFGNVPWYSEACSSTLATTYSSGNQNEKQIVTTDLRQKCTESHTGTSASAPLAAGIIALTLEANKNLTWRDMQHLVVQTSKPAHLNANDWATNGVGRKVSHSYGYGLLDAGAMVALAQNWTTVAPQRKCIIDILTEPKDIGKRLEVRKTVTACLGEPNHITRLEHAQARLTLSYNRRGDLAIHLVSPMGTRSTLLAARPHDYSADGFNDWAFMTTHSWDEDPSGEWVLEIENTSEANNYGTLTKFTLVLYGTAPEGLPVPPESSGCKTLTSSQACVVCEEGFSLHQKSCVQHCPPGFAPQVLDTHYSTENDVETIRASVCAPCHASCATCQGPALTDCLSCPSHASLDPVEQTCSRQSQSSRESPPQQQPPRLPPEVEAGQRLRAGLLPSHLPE

T1 sequence (O15393 109-492 limits assumed): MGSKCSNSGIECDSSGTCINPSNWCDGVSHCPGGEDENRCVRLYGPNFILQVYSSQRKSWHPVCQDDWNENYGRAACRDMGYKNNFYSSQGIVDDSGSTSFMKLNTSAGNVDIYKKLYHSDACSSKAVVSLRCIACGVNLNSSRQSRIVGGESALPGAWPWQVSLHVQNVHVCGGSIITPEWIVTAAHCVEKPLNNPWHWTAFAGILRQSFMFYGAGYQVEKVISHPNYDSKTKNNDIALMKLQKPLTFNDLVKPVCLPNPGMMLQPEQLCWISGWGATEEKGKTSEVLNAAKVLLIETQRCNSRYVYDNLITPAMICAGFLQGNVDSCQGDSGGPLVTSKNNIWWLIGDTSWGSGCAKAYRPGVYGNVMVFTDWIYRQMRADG

Question: For N=C(N/N=C/c1ccncc1)c1nonc1NCNc1nonc1C(=N)N/N=C/c1ccncc1 [M3], which IC50 [1] is on record?
Answer: Its IC50 is 50 ± 2 nM.

Question: And the IC50 [2]?
Answer: Its IC50 is 13 ± 3 nM.

Question: And the IC50 [3]?
Answer: The IC50 was 90 ± 2 nM.
